Reference: US9347057B2, “Methods for efficient, expansive user-defined DNA mutagenesis” (THE JOHNS HOPKINS UNIVERSITY, priority 2012, dated 2016)

How the values were obtained:
Type in all cases: cell-based, E. coli
Conditions in all cases: Escherichia coli
[1] = test system: wildtype TEM-1 (allele: none); experiment: MIC assay on agar plates, cells with TEM-1 (no mutation)
Protocol: (§1) Selected single base mutations were re-introduced into TEM-1 by site-directed PFunkel mutagenesis on the 20 μL volume scale. The MIC for ampicillin and piperacillin of the mutants was assessed with and without 6 μg/mL tazobactam by spotting 10^4 CFU on Mueller-Hinton agar plates containing 50 μg/mL Spec, 300 μM IPTG, and √2-fold increments of either ampicillin or piperacillin. Plates were incubated at 37° C. for 12 hrs.

[2] = test system: TEM-1 M69L allele; experiment: MIC assay on agar plates, TEM-1 allele M69L
Protocol: as §1

[3] = test system: TEM-1 Y105D allele; experiment: MIC assay on agar plates, TEM-1 allele Y105D
Protocol: as §1

[4] = test system: TEM-1 Y105N allele; experiment: MIC assay on agar plates, TEM-1 allele Y105N
Protocol: as §1

[5] = test system: TEM-1 Y105S allele; experiment: MIC assay on agar plates, TEM-1 allele Y105S
Protocol: as §1

[6] = test system: TEM-1 S235T allele; experiment: MIC assay on agar plates, TEM-1 allele S235T
Protocol: as §1

[7] = test system: TEM-1 R244S allele; experiment: MIC assay on agar plates, TEM-1 allele R244S
Protocol: as §1

[8] = test system: TEM-1 N276D allele; experiment: MIC assay on agar plates, TEM-1 allele N276D
Protocol: as §1

[9] = + tazobactam 6 μg/mL, median of three replicates
[10] = + tazobactam 6 μg/mL, replicate 1
[11] = + tazobactam 6 μg/mL, replicate 2
[12] = + tazobactam 6 μg/mL, replicate 3
[13] = − tazobactam, median of three replicates

## CC1(C)S[C@@H]2[C@H](NC(=O)[C@H](N)c3ccccc3)C(=O)N2[C@H]1C(=O)O [ampicillin]
[1]; [9]
  MIC: 22.6 mg/L
[1]; [10]
  MIC: 16 mg/L
[1]; [11]
  MIC: 22.6 mg/L
[1]; [12]
  MIC: 22.6 mg/L
[1]; [13]
  MIC: 8190 mg/L
[1]; − tazobactam, replicate 1
  MIC: 8190 mg/L
[1]; − tazobactam, replicate 2
  MIC: 8190 mg/L
[1]; − tazobactam, replicate 3
  MIC: 8190 mg/L
[2]; [9]
  MIC: 724 mg/L
[2]; [10]
  MIC: 512 mg/L
[2]; [11]
  MIC: 724 mg/L
[2]; [12]
  MIC: 724 mg/L
[2]; [13]
  MIC: 8190 mg/L
[2]; − tazobactam, replicate 1
  MIC: 5790 mg/L
[2]; − tazobactam, replicate 2
  MIC: 8190 mg/L
[2]; − tazobactam, replicate 3
  MIC: 8190 mg/L
[3]; [9]
  MIC: 256 mg/L
[3]; [10]
  MIC: 256 mg/L
[3]; [11]
  MIC: 256 mg/L
[3]; [12]
  MIC: 362 mg/L
[3]; [13]
  MIC: 1450 mg/L
[3]; − tazobactam, replicate 1
  MIC: 1450 mg/L
[3]; − tazobactam, replicate 2
  MIC: 1450 mg/L
[3]; − tazobactam, replicate 3
  MIC: 1450 mg/L
[4]; [9]
  MIC: 1450 mg/L
[4]; [10]
  MIC: 148 mg/L
[4]; [11]
  MIC: 1450 mg/L
[4]; [12]
  MIC: 1450 mg/L
[4]; [13]
  MIC: 5790 mg/L
[4]; − tazobactam, replicate 1
  MIC: 4100 mg/L
[4]; − tazobactam, replicate 2
  MIC: 5790 mg/L
[4]; − tazobactam, replicate 3
  MIC: 5790 mg/L
[5]; [9]
  MIC: 1020 mg/L
[5]; [10]
  MIC: 724 mg/L
[5]; [11]
  MIC: 1020 mg/L
[5]; [12]
  MIC: 1020 mg/L
[5]; [13]
  MIC: 2900 mg/L
[5]; − tazobactam, replicate 1
  MIC: 2900 mg/L
[5]; − tazobactam, replicate 2
  MIC: 2900 mg/L
[5]; − tazobactam, replicate 3
  MIC: 2900 mg/L
[6]; [9]
  MIC: 362 mg/L
[6]; [10]
  MIC: 256 mg/L
[6]; [11]
  MIC: 362 mg/L
[6]; [12]
  MIC: 512 mg/L
[6]; [13]
  MIC: 8190 mg/L
[6]; − tazobactam, replicate 1
  MIC: 8190 mg/L
[6]; − tazobactam, replicate 2
  MIC: 8190 mg/L
[6]; − tazobactam, replicate 3
  MIC: 8190 mg/L
[7]; [9]
  MIC: 90.5 mg/L
[7]; [10]
  MIC: 64 mg/L
[7]; [11]
  MIC: 128 mg/L
[7]; [12]
  MIC: 90.5 mg/L
[7]; [13]
  MIC: 4100 mg/L
[7]; − tazobactam, replicate 1
  MIC: 2900 mg/L
[7]; − tazobactam, replicate 2
  MIC: 4100 mg/L
[7]; − tazobactam, replicate 3
  MIC: 4100 mg/L
[8]; [9]
  MIC: 90.5 mg/L
[8]; [10]
  MIC: 90.5 mg/L
[8]; [11]
  MIC: 90.5 mg/L
[8]; [12]
  MIC: 128 mg/L
[8]; [13]
  MIC: 8190 mg/L
[8]; − tazobactam, replicate 1
  MIC: 8190 mg/L
[8]; − tazobactam, replicate 2
  MIC: 8190 mg/L
[8]; − tazobactam, replicate 3
  MIC: 8190 mg/L

## CCN1CCN(C(=O)N[C@@H](C(=O)N[C@@H]2C(=O)N3[C@@H]2SC(C)(C)[C@@H]3C(=O)O)c2ccccc2)C(=O)C1=O [piperacillin]
[1]; [9]
  MIC: 1.4 mg/L
[1]; [10]
  MIC: 1 mg/L
[1]; [11]
  MIC: 1.4 mg/L
[1]; [12]
  MIC: 1.4 mg/L
[1]; [13]
  MIC: 2900 mg/L
[1]; − tazobactam, replicate 1
  MIC: 2900 mg/L
[1]; − tazobactam, replicate 2
  MIC: 2900 mg/L
[1]; − tazobactam, replicate 3
  MIC: 2900 mg/L
[2]; [9]
  MIC: 22.6 mg/L
[2]; [10]
  MIC: 22.6 mg/L
[2]; [11]
  MIC: 32 mg/L
[2]; [12]
  MIC: 22.6 mg/L
[2]; [13]
  MIC: 2900 mg/L
[2]; − tazobactam, replicate 1
  MIC: 2050 mg/L
[2]; − tazobactam, replicate 2
  MIC: 2900 mg/L
[2]; − tazobactam, replicate 3
  MIC: 2900 mg/L
[3]; [9]
  MIC: 1 mg/L
[3]; [10]
  MIC: 1 mg/L
[3]; [11]
  MIC: 1 mg/L
[3]; [12]
  MIC: 1 mg/L
[3]; [13]
  MIC: 1.4 mg/L
[3]; − tazobactam, replicate 1
  MIC: 1.4 mg/L
[3]; − tazobactam, replicate 2
  MIC: 1.4 mg/L
[3]; − tazobactam, replicate 3
  MIC: 1.4 mg/L
[4]; [9]
  MIC: 45 mg/L
[4]; [10]
  MIC: 32 mg/L
[4]; [11]
  MIC: 45 mg/L
[4]; [12]
  MIC: 45 mg/L
[4]; [13]
  MIC: 2050 mg/L
[4]; − tazobactam, replicate 1
  MIC: 2050 mg/L
[4]; − tazobactam, replicate 2
  MIC: 2050 mg/L
[4]; − tazobactam, replicate 3
  MIC: 2050 mg/L
[5]; [9]
  MIC: 16 mg/L
[5]; [10]
  MIC: 16 mg/L
[5]; [11]
  MIC: 16 mg/L
[5]; [12]
  MIC: 16 mg/L
[5]; [13]
  MIC: 1450 mg/L
[5]; − tazobactam, replicate 1
  MIC: 1020 mg/L
[5]; − tazobactam, replicate 2
  MIC: 1450 mg/L
[5]; − tazobactam, replicate 3
  MIC: 1450 mg/L
[6]; [9]
  MIC: 22.6 mg/L
[6]; [10]
  MIC: 32 mg/L
[6]; [11]
  MIC: 16 mg/L
[6]; [12]
  MIC: 22.6 mg/L
[6]; [13]
  MIC: 2900 mg/L
[6]; − tazobactam, replicate 1
  MIC: 2900 mg/L
[6]; − tazobactam, replicate 2
  MIC: 2900 mg/L
[6]; − tazobactam, replicate 3
  MIC: 2900 mg/L
[7]; [9]
  MIC: 2 mg/L
[7]; [10]
  MIC: 2 mg/L
[7]; [11]
  MIC: 2.83 mg/L
[7]; [12]
  MIC: 2 mg/L
[7]; [13]
  MIC: 1450 mg/L
[7]; − tazobactam, replicate 1
  MIC: 1020 mg/L
[7]; − tazobactam, replicate 2
  MIC: 1450 mg/L
[7]; − tazobactam, replicate 3
  MIC: 1450 mg/L
[8]; [9]
  MIC: 1.4 mg/L
[8]; [10]
  MIC: 1 mg/L
[8]; [11]
  MIC: 1.4 mg/L
[8]; [12]
  MIC: 2 mg/L
[8]; [13]
  MIC: 2900 mg/L
[8]; − tazobactam, replicate 1
  MIC: 2900 mg/L
[8]; − tazobactam, replicate 2
  MIC: 2900 mg/L
[8]; − tazobactam, replicate 3
  MIC: 2900 mg/L
